According to US20250228239A1, “MOLECULES HAVING PESTICIDAL UTILITY, AND INTERMEDIATES, COMPOSITIONS, AND PROCESSES, RELATED THERETO” (priority 2024, published 2025):
Read-outs that look alike come from different tables or passages of the source.

Key:
[1] = test system: Beet Armyworm (Spodoptera exigua, LAPHEG); assay: Bioassays on Beet Armyworm (BAW), 128-well diet tray assay; assay type: in vivo; settings: Spodoptera exigua; for mortality at 50 µg/cm2: 168 h, second instar larvae, 50 μg/cm^2 of test molecule on artificial diet, 25° C., five to seven days, average of eight wells, read-out: BAW % Control (or Mortality) rating
Description: (§1) Certain molecules disclosed in this document were tested against BAW and CL using procedures described in the following examples. In the reporting of the results, the “BAW & CL Rating Table” was used (See Table Section).
Bioassays on BAW were conducted using a 128-well diet tray assay. One to five second instar BAW larvae were placed in each well (3 mL) of the diet tray that had been previously filled with 1 mL of artificial diet to which 50 μg/cm^2 of the test molecule (dissolved in 50 μL of 90:10 acetone-water mixture) had been applied (to each of eight wells) and then allowed to dry. Trays were covered with a clear self-adhesive cover, vented to allow gas exchange, and held at 25° C., 14:10 light-dark for five to seven days. Percent mortality was recorded for the larvae in each well; activity in the eight wells was then averaged. The results are indicated in the table entitled “Table ABC: Biological Results” (See Table Section).

[2] = test system: Cabbage Looper (Trichoplusia ni, TRIPNI); assay: Bioassays on Cabbage Looper (CL), 128-well diet tray assay; assay type: in vivo; settings: Trichoplusia ni; for mortality at 50 µg/cm2: 168 h, second instar larvae, 50 μg/cm^2 of test molecule on artificial diet, 25° C., five to seven days, average of eight wells, read-out: CL % Control (or Mortality) rating
Description: as §1
Bioassays on CL were conducted using a 128-well diet tray assay. One to five second instar CL larvae were placed in each well (3 mL) of the diet tray that had been previously filled with 1 mL of artificial diet to which 50 μg/cm^2 of the test molecule (dissolved in 50 μL of 90:10 acetone-water mixture) had been applied (to each of eight wells) and then allowed to dry. Trays were covered with a clear self-adhesive cover, vented to allow gas exchange, and held at 25° C., 14:10 light-dark for five to seven days. Percent mortality was recorded for the larvae in each well; activity in the eight wells was then averaged. The results are indicated in the table entitled “Table ABC: Biological Results” (See Table Section).

[3] = Beet Armyworm, Table ABC / ABC-DP rating, read-out: BAW rating
[4] = Cabbage Looper, Table ABC / ABC-DP rating, read-out: CL rating
[5] = Table ABC: Biological Results, species BAW, read-out: BAW
[6] = Table ABC: Biological Results, species CL, read-out: CL

Structure (SMILES) | pest or weed control at 50 µg/cm2 [1, 5] | pest or weed control at 50 µg/cm2 [2, 6] | other results
Nc1c(F)cc(NC(=O)c2cc(NC(=O)[C@H]3[C@H](c4ccc(Cl)c(Cl)c4)C3(Cl)Cl)ccc2Cl)cc1F (relative stereo) [DP3, trans-N-(4-Amino-3,5-difluorophenyl)-2-chloro-5-(2,2-dichloro-3-(3,4-dichlorophenyl)cyclopropane-1-carboxamido)benzamide] |  |  | mortality at 50 µg/cm2 [1]: 50 to 100%; pest or weed control at 50 µg/cm2 [1, 3]: 50 to 100%; mortality at 50 µg/cm2 [2]: 50 to 100%; pest or weed control at 50 µg/cm2 [2, 4]: 50 to 100%
Nc1cc(F)ccc1NC(=O)c1cc(NC(=O)[C@H]2[C@H](c3ccc(Cl)c(Cl)c3)C2(Cl)Cl)ccc1Cl (relative stereo) [DP6, trans-N-(2-amino-4-fluorophenyl)-2-chloro-5-(2,2-dichloro-3-(3,4-dichlorophenyl)cyclopropane-1-carboxamido)benzamide] |  |  | mortality at 50 µg/cm2 [1]: 50 to 100%; pest or weed control at 50 µg/cm2 [1, 3]: 50 to 100%; mortality at 50 µg/cm2 [2]: 50 to 100%; pest or weed control at 50 µg/cm2 [2, 4]: 50 to 100%
Nc1c(F)c(F)c(F)c(NC(=O)c2cc(NC(=O)[C@H]3[C@H](c4cc(Cl)cc(Cl)c4)C3(Cl)Cl)ccc2Cl)c1F (relative stereo) [F1022, trans-N-(3-Amino-2,4,5,6-tetrafluorophenyl)-2-chloro-5-(2,2-dichloro-3-(3,5-dichlorophenyl)cyclopropane-1-carboxamido)benzamide] | 50 to 100% | 50 to 100% | 
Nc1c(F)ccc(NC(=O)c2cc(NC(=O)[C@H]3[C@H](c4ccc(F)c(C(F)F)c4)C3(Cl)Cl)ccc2Cl)c1F (relative stereo) [F1036, trans-N-(3-Amino-2,4-difluorophenyl)-2-chloro-5-(2,2-dichloro-3-(3-(difluoromethyl)-4-fluorophenyl)cyclopropane-1-carboxamido)benzamide] | 50 to 100% | 50 to 100% | 
Cc1ccc(CNc2ccc(NC(=O)c3cc(NC(=O)[C@H]4[C@H](c5cc(Cl)cc(Cl)c5)C4(Cl)Cl)ccc3Cl)c(C)c2)cc1 (relative stereo) [F1041, trans-2-Chloro-5-(2,2-dichloro-3-(3,5-dichlorophenyl)cyclopropane-1-carboxamido)-N-(2-methyl-4-((4-methylbenzyl)amino)phenyl)benzamide] | 50 to 100% | 50 to 100% | 
C=CCN(C(=O)c1cc(NC(=O)[C@H]2[C@H](c3cc(Cl)cc(Cl)c3)C2(Cl)Cl)ccc1Cl)c1ccc(F)cc1C#N (relative stereo) [F1055, trans-N-Allyl-2-chloro-N-(2-cyano-4-fluorophenyl)-5-(2,2-dichloro-3-(3,5-dichlorophenyl)cyclopropane-1-carboxamido)benzamide] | 50 to 100% | 50 to 100% | 
Cc1cc(NC(=O)C(Cl)(Cl)Cl)ccc1NC(=O)c1cc(NC(=O)[C@H]2[C@H](c3ccc(Cl)c(Cl)c3)C2(Cl)Cl)ccc1Cl (relative stereo) [F1060, trans-2-Chloro-5-(2,2-dichloro-3-(3,4-dichlorophenyl)cyclopropane-1-carboxamido)-N-(2-methyl-4-(2,2,2-trichloroacetamido)phenyl)benzamide] | 50 to 100% | 50 to 100% | 
Cc1cc([C@H]2[C@H](C(=O)Nc3ccc(Cl)c(C(=O)Nc4ccc(F)c(N)c4F)c3)C2(Cl)Cl)cc(C(F)(F)F)c1F (relative stereo) [F1068, trans-N-(3-Amino-2,4-difluorophenyl)-2-chloro-5-(2,2-dichloro-3-(4-fluoro-3-methyl-5-(trifluoromethyl)phenyl)cyclopropane-1-carboxamido)benzamide] | 50 to 100% | 50 to 100% | 
CC(C)(C)OC(=O)N(C(=O)OC(C)(C)C)c1c(F)ccc(NC(=O)c2c(Cl)ccc(NC(=O)[C@H]3[C@H](c4ccc(F)c(Cl)c4)C3(Cl)Cl)c2Cl)c1F (relative stereo) [F1107, trans-tert-Butyl-N-tert-butoxycarbonyl-N-[3-[[2,6-dichloro-3-[[2,2-dichloro-3-(3-chloro-4-fluorophenyl)cyclopropanecarbonyl]amino]benzoyl]amino]-2,6-difluoro-phenyl]carbamate] |  | 0 to 50% | 
CC(=O)OCCN(C(=O)OC(C)(C)C)c1ccc(NC(=O)c2cc(NC(=O)[C@H]3[C@H](c4cc(Cl)cc(Cl)c4)C3(Cl)Cl)ccc2Cl)c(C)c1 (relative stereo) [F1129, trans-2-((tert-butoxycarbonyl)(4-(2-chloro-5-(2,2-dichloro-3-(3,5-dichlorophenyl)cyclopropane-1-carboxamido)benzamido)-3-methylphenyl)amino)ethyl acetate] |  | 50 to 100% | 
Cc1cc(NC(=O)[C@H]2[C@H](c3ccc(F)c(Cl)c3)C2(Cl)Cl)cc(C(=O)Nc2ccc(F)c(N(C(=O)OC(C)(C)C)C(=O)OC(C)(C)C)c2F)c1F (relative stereo) [F1138, trans-tert-Butyl-N-tert-butoxycarbonyl-N-[3-[[5-[[2,2-dichloro-3-(3-chloro-4-fluorophenyl)cyclopropanecarbonyl]amino]-2-fluoro-3-methylbenzoyl]amino]-2,6-difluorophenyl]carbamate] | 0 to 50% |  | 
CC(C)(C)OC(=O)N(C(=O)OC(C)(C)C)c1c(F)ccc(NC(=O)c2cc(NC(=O)[C@H]3[C@H](c4ccc(F)c(Cl)c4)C3(Cl)Cl)cc(F)c2Cl)c1F (relative stereo) [F1155, trans-tert-Butyl-N-tert-butoxycarbonyl-N-[3-[[2-chloro-5-[[2,2-dichloro-3-(3-chloro-4-fluorophenyl)cyclopropanecarbonyl]amino]-3-fluorobenzoyl]amino]-2,6-difluorophenyl]carbamate] | 50 to 100% |  | 
CC(=O)Oc1c(F)ccc(NC(=O)c2cc(NC(=O)[C@H]3[C@H](c4cc(Cl)cc(Cl)c4)C3(Cl)Cl)ccc2Cl)c1F (relative stereo) [F1193, trans-3-(2-Chloro-5-(2,2-dichloro-3-(3,5-dichlorophenyl)cyclopropane-1-carboxamido)benzamido)-2,6-difluorophenyl acetate] |  | 50 to 100% | 
CC(C)(C)OC(=O)N(C(=O)OC(C)(C)C)c1c(F)ccc(NC(=O)c2cc(NC(=O)[C@H]3[C@H](c4ccc(F)c(Cl)c4)C3(Cl)Cl)cc(Cl)c2F)c1F (relative stereo) [F1198, trans-tert-Butyl-N-tert-butoxycarbonyl-N-[3-[[3-chloro-5-[[2,2-dichloro-3-(3-chloro-4-fluorophenyl)cyclopropanecarbonyl]amino]-2-fluorobenzoyl]amino]-2,6-difluorophenyl]carbamate] |  | 0 to 50% | 
COc1c(F)cc(NC(=O)[C@H]2[C@H](c3ccc(F)c(Cl)c3)C2(Cl)Cl)cc1C(=O)Nc1ccccc1 (relative stereo) [F1213, trans-5-(2,2-Dichloro-3-(3-chloro-4-fluorophenyl)cyclopropane-1-carboxamido)-3-fluoro-2-methoxy-N-phenylbenzamide] |  | 50 to 100% | 
COc1c(Cl)cc(NC(=O)[C@H]2[C@H](c3ccc(F)c(Cl)c3)C2(Cl)Cl)cc1C(=O)Nc1ccc(F)c(N(C(=O)OC(C)(C)C)C(=O)OC(C)(C)C)c1F (relative stereo) [F1237, trans-tert-Butyl-N-tert-butoxycarbonyl-N-[3-[[3-chloro-5-[[2,2-dichloro-3-(3-chloro-4-fluorophenyl)cyclopropanecarbonyl]amino]-2-methoxybenzoyl]amino]-2,6-difluorophenyl]carbamate] | 0 to 50% |  | 
O=C(Nc1cc(Cl)c(O)c(Cl)c1)c1cc(NC(=O)[C@H]2[C@H](c3cc(Cl)cc(Cl)c3)C2(Cl)Cl)ccc1Cl (relative stereo) [F1360, trans-2-Chloro-5-(2,2-dichloro-3-(3,5-dichlorophenyl)cyclopropane-1-carboxamido)-N-(3,5-dichloro-4-hydroxyphenyl)benzamide] |  | 50 to 100% | 
CCOC(=O)C(F)(F)CNC(=O)c1cc(NC(=O)[C@H]2[C@H](c3cc(Cl)cc(Cl)c3)C2(Cl)Cl)ccc1Cl (relative stereo) [F2076, trans-Ethyl 3-(2-chloro-5-(2,2-dichloro-3-(3,5-dichlorophenyl)cyclopropane-1-carboxamido)benzamido)-2,2-difluoropropanoate] |  |  | pest or weed control at 50 µg/cm2 [2, 4]: 50 to 100%
Cc1c(F)c(NC(=O)c2cc(NC(=O)[C@H]3[C@H](c4ccc(F)c(C(F)(F)F)c4)C3(Cl)Cl)ccc2Cl)cc(N(C(=O)OC(C)(C)C)C(=O)OC(C)(C)C)c1F [F1670, tert-Butyl N-tert-butoxycarbonyl-N-[5-[[2-chloro-5-[[(1R,3R)-2,2-dichloro-3-[4-fluoro-3-(trifluoromethyl)phenyl]cyclopropanecarbonyl]amino]benzoyl]amino]-2,4-difluoro-3-methyl-phenyl]carbamate] |  |  | pest or weed control at 50 µg/cm2 ([1]; Beet Armyworm, rating class, read-out: BAW): 0 to 50%
